# Measurements reported in PMC10441460, “Identification of Selective ATP-Competitive CMG Helicase Inhibitors for Cancer Intervention that Disrupt CMG-Replisome Function” (Research Square, 2023).
# Tests used:
# [1] = tested on: T1, human CMG helicase (Cdc45-MCM-GINS; Mcm2-7 ATPase core); experiment: DNA fork-unwinding helicase assay, dose-dependent suppression; type: biochemical
# T1 construct: 11-subunit hCMG holoenzyme co-expressed by baculovirus in insect cells (Cdc45, Mcm2-7, GINS); with Cdc45 and GINS (Sld5, Psf1, Psf2, Psf3)
# [2] = tested on: T2, Nc1ncnc2c1ncn2[C@@H]1O[C@H](COP(=O)(O)OP(=O)(O)OP(=O)(O)O)[C@@H](O)[C@H]1O; experiment: helicase kinetics with increasing ATP (Km); type: biochemical, Homo sapiens; settings: Mg2+ MCM ATPase clefts formed between adjacent MCM subunit pairs
# T2 construct: 11-subunit hCMG holoenzyme co-expressed by baculovirus in insect cells (Cdc45, Mcm2-7, GINS); with Cdc45 and GINS (Sld5, Psf1, Psf2, Psf3)
Compound,"DNA fork-unwinding helicase assay, dose-dependent suppression [1]",Km [2]
Nc1ncnc2c1ncn2[C@@H]1O[C@H](COP(=O)(O)OP(=O)(O)OP(O)(O)=S)[C@@H](O)[C@H]1O [ATP-γ-S],dose-dependent suppression of fork-unwinding activity in the presence of slow-hydrolyzable ATP-γ-S,
human CMG helicase (Cdc45-MCM-GINS; Mcm2-7 ATPase core) (Homo sapiens),,690 µM
